Measurements published in patent publication US9549932B2, “2-(morpholin-4-yl)-1,7-naphthyridines” (BAYER PHARMA AKTIENGESELLSCHAFT, priority 2014, dated 2017).
Counter-ions that a name gives are not always drawn. Like-named read-outs stand apart in the source and are kept apart here.

Target: full-length human ATR protein (Homo sapiens (Human), UniProt Q13535)
Assay: Binding assay ATR (TR-FRET tracer displacement)
Settings: TR-FRET
Excerpt: To determine of binding activity of the test compounds, full-length human ATR protein was expressed and purified together with ATRIP as described above. Furthermore, a fluorescently labelled compound (either tracer A or B as described above) was used as a tracer molecule. Detection of the binding event of the tracer was achieved by time-resolved fluorescence energy transfer (TR-FRET). We used an anti-GST-Terbium antibody (CisBio) that binds to the GST-tag at the N-terminus of ATR-kinase. […] Displacement of the fluorescent tracer by a test compound leads to a reduction of the TR-FRET-signal.
For the assay 50 nl of a 100-fold concentrated solution of the test compound in DMSO was pipetted into a black low volume 384well microtiter plate (MTP, Greiner Bio-One, Frickenhausen, Germany). […] The ATR-working solution was incubated for 30 min at 22° C. prior to dispensing to pre-form the complex of antiGST-Tb+GST-ATR+ATRIP. Then, 3 μl of the ATR-working solution were added to the test compound and the mixture was incubated for 10 min at 22° C. to allow pre-binding of the test compounds to ATR/ATRIP. Then, 2 μl of a 100 nM solution of either tracer A or B in assay buffer were added to the ATR-working solution. The resulting mixture was incubated for 30 min at 22° C. […] The dilution series were prepared separately before the assay on the level of the 100 fold concentrated solutions in DMSO by serial 1:3.4 dilutions in duplicate values for each concentration. IC50 values were calculated by a 4 parameter fit using standard software (GraphPad prism or equivalent).

[1] = tracer A, read-out: ATR binding (tracer A) IC50
[2] = tracer B, read-out: ATR binding (tracer B) IC50

Chain of full-length human ATR protein (Q13535 other isoform, or with tags, fused parts or gaps): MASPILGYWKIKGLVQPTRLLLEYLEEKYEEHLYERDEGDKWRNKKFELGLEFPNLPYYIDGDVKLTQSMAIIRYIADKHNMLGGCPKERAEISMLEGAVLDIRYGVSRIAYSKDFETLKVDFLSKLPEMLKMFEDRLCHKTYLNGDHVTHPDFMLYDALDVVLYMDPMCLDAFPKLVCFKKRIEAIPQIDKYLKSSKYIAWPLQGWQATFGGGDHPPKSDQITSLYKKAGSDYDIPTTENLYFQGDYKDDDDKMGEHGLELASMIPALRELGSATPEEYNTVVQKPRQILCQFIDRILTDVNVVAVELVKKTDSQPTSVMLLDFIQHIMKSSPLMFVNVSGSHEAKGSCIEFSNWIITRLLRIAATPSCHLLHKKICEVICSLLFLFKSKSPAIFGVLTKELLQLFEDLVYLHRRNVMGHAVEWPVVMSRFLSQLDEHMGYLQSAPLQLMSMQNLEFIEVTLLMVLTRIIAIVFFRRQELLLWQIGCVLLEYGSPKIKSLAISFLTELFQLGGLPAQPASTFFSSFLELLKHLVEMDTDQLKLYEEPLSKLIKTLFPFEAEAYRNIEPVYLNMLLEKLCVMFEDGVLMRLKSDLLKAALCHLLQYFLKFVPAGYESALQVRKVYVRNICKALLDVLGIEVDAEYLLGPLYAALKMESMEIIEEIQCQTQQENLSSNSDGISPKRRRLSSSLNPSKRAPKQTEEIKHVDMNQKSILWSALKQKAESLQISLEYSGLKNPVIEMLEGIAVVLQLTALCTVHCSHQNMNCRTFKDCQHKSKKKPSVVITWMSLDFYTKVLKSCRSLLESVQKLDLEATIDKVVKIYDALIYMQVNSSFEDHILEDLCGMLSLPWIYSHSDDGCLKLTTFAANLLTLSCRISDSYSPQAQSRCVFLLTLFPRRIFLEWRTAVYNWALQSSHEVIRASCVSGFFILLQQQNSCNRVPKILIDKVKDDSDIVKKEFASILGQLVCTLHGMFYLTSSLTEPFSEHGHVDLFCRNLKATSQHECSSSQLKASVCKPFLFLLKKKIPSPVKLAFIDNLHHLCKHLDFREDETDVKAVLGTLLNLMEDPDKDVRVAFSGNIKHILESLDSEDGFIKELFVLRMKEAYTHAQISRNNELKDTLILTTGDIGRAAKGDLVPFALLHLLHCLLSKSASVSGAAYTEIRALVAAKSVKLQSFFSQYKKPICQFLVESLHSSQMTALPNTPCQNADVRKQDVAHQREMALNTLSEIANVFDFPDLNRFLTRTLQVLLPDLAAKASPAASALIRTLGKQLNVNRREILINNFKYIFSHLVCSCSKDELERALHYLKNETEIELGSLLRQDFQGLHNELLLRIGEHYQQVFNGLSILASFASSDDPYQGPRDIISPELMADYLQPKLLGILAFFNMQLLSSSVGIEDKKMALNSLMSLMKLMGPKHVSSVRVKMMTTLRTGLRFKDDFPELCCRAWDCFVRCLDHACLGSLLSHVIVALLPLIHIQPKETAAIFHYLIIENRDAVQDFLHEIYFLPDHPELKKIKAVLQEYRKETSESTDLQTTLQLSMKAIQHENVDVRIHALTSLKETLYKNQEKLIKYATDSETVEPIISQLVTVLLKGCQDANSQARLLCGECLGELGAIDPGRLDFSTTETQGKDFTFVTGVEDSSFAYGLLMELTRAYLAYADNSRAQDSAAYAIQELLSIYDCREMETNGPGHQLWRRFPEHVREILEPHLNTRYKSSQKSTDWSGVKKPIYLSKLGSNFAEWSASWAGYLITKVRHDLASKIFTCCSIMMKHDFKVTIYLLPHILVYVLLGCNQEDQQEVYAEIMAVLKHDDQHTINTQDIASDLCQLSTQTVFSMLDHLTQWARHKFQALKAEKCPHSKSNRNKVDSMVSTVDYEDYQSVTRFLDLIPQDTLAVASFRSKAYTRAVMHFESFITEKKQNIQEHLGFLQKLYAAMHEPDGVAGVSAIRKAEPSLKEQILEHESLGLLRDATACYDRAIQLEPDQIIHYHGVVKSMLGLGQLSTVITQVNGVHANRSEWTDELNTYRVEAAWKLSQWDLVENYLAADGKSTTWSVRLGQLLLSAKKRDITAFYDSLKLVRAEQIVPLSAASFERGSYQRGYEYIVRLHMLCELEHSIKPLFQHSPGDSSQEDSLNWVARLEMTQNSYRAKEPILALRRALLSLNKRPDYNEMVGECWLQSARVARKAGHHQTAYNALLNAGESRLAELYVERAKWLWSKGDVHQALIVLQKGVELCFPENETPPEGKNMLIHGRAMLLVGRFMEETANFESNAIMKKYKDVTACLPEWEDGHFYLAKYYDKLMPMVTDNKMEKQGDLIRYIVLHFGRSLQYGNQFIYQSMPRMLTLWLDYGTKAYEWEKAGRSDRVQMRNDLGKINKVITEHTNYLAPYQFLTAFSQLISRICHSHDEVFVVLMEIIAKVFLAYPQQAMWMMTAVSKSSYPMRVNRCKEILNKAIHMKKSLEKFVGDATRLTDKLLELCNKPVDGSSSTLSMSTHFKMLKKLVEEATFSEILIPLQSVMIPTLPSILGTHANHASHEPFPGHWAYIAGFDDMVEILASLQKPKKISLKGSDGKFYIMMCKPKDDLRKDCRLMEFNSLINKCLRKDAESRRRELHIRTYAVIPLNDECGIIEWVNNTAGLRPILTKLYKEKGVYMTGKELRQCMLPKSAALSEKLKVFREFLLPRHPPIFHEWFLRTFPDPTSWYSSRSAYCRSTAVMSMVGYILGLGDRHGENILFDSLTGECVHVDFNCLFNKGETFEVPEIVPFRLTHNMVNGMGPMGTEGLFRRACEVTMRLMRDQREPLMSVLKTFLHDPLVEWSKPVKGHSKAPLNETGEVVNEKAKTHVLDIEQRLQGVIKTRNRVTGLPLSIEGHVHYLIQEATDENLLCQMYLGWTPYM
Chain of full-length human ATR protein (Q8WXE1 other isoform, or with tags, fused parts or gaps partner): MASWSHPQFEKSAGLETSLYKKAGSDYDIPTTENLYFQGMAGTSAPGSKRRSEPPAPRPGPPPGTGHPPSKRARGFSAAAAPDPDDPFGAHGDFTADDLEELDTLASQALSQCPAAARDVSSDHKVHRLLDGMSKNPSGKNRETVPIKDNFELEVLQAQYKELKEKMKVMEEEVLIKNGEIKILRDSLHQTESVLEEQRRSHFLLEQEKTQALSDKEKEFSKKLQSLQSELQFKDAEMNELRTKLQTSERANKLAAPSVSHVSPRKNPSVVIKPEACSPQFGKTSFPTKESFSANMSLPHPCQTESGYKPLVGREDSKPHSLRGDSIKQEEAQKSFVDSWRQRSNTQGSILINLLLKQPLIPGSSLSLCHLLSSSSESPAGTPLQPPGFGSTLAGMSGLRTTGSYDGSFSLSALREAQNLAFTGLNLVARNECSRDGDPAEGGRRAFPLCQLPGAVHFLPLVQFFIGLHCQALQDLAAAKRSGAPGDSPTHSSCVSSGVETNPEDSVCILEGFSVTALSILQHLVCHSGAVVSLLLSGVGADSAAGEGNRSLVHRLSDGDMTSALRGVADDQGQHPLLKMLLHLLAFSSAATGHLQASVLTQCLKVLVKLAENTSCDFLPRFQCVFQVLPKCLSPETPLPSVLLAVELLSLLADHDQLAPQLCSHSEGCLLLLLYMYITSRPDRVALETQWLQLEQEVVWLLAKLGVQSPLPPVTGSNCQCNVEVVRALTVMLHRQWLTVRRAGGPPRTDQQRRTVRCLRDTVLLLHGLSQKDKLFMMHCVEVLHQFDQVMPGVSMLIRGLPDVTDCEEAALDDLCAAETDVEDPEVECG

In the case of `C[C@@H]1COCCN1c1cc(C2CC2)c2ccnc(-c3cc[nH]n3)c2n1` [Example 29, 4-cyclopropyl-2-((R)-3-methylmorpholin-4-yl)-8-(1H-pyrazol-3-yl)-[1,7]-naphthyridine], the IC50 [1] is reported as 21.5 nM and the IC50 [2] is reported as 9.23 nM.
In the case of `C[C@@H]1COCCN1c1cc(-c2ccc(S(C)(=N)=O)cc2)c2ccnc(-c3ccn[nH]3)c2n1` (stereo partly drawn) [Example 30, 4-[2-((R)-3-methylmorpholin-4-yl)-8-(2H-pyrazol-3-yl)-[1,7]naphthyridine-4-yl]phenyl-S-methylsulphoximide], the IC50 [1] is reported as 22.8 nM and the IC50 [2] is reported as 9.48 nM.
In the case of `C[C@@H]1COCCN1c1cc(-c2cccc(S(C)(=N)=O)c2)c2ccnc(-c3ccn[nH]3)c2n1` (stereo partly drawn) [Example 31, 3-[2-((R)-3-methylmorpholin-4-yl)-8-(2H-pyrazol-3-yl)-[1,7]naphthyridine-4-yl]phenyl-S-methylsulphoximide], the IC50 [1] is reported as 86.6 nM and the IC50 [2] is reported as 45.1 nM.
For `C[C@@H]1COCCN1c1cc(S(C)(=O)=O)c2ccnc(-c3ccn[nH]3)c2n1` [Example 33, 2-[(3R)-3-methylmorpholin-4-yl]-4-(methylsulfonyl)-8-(1H-pyrazol-5-yl)-1,7-naphthyridine], the IC50 [1] was 19.8 nM and the IC50 [2] was 10.3 nM.
Compound `N#Cc1cc(N2CCOCC2)nc2c(-c3cc[nH]n3)nccc12` [Example 34, 2-(morpholin-4-yl)-8-(1H-pyrazol-3-yl)-[1,7]naphthyridine-4-carbonitrile] has an IC50 [1] of 357 nM and an IC50 [2] of 536 nM.
`C[C@@H]1COCCN1c1cc(C#N)c2ccnc(-c3ccn[nH]3)c2n1` [Example 35, 2-((R)-3-methylmorpholin-4-yl)-8-(-2H-pyrazol-3-yl]-[1,7]naphthyridine-4-carbonitrile] showed an IC50 [1] of 122 nM and an IC50 [2] of 75.5 nM.
`NC(=O)c1cc(N2CCOCC2)nc2c(-c3cc[nH]n3)nccc12` [Example 36, 2-morpholin-4-yl-8-(1H-pyrazol-3-yl)-[1,7]naphthyridine-4-carboxamide] gave an IC50 [1] of 1500 nM.
Work on `CS(=O)(=O)Cc1cc(N2CCOCC2)nc2c(-c3ccn[nH]3)nccc12` [Example 37, 4-methanesulphonylmethyl-2-morpholin-4-yl-8-(2H-pyrazol-3-yl)-[1,7]naphthyridine] yielded an IC50 [1] of 170 nM and an IC50 [2] of 127 nM.
Work on `OCc1cc(N2CCOCC2)nc2c(-c3ccn[nH]3)nccc12` [Example 38, [2-(morpholin-4-yl)-8-(2H-pyrazol-3-yl)-[1,7]naphthyridine-4-yl]methanol] yielded an IC50 [1] of 502 nM and an IC50 [2] of 405 nM.
For `CS(=O)(=O)C1(c2cc(N3CCOCC3)nc3c(-c4ccn[nH]4)nccc23)CC1` [Example 39, 4-(1-methanesulphonylcyclopropyl)-2-(morpholin-4-yl)-8-(2H-pyrazol-3-yl)-[1,7]naphthyridine], the IC50 [1] was 60.1 nM and the IC50 [2] was 35.3 nM.
Compound `CC(C)Oc1cc(N2CCOCC2)nc2c(-c3ccc[nH]3)nccc12` [Example 41, 2-(morpholin-4-yl)-4-(propan-2-yloxy)-8-(1H-pyrrol-2-yl)-1,7-naphthyridine] has an IC50 [1] of 339 nM and an IC50 [2] of 230 nM.
For `CS(=N)(=O)CCCOc1cc(N2CCOCC2)nc2c(-c3ccn[nH]3)nccc12` (stereo not shown) [Example 42, 4-[3-(S-methylsulfonimidoyl)propoxy]-2-(morpholin-4-yl)-8-(1H-pyrazol-5-yl)-1,7-naphthyridine], the IC50 [1] was 484 nM and the IC50 [2] was 533 nM.
Work on `CCOc1cc(N2CCOCC2)nc2c(-c3cc[nH]n3)nccc12` [Example 43, 4-ethoxy-2-(morpholin-4-yl)-8-(1H-pyrazol-3-yl)-[1,7]naphthyridine] yielded an IC50 [1] of 493 nM and an IC50 [2] of 258 nM.
With `COc1cc(N2CCOCC2)nc2c(-c3cc[nH]n3)nccc12` [Example 44, 4-methoxy-2-(morpholin-4-yl)-8-(1H-pyrazol-3-yl)-[1,7]naphthyridine] the IC50 [1] was 543 nM and the IC50 [2] was 327 nM.
In the case of `CC(C)(O)COc1cc(N2CCOCC2)nc2c(-c3ccn[nH]3)nccc12` [Example 45, 2-methyl-1-{[2-(morpholin-4-yl)-8-(1H-pyrazol-5-yl)-1,7-naphthyridin-4-yl]oxy}propan-2-ol], the IC50 [1] is reported as 293 nM.
For `c1cc(-c2nccc3c(OCC4CCCO4)cc(N4CCOCC4)nc23)[nH]n1` (stereo not shown) [Example 46, 2-(morpholin-4-yl)-8-(1H-pyrazol-5-yl)-4-(tetrahydrofuran-2-ylmethoxy)-1,7-naphthyridine], the IC50 [1] was 262 nM.
For `O=C1OCCC1Oc1cc(N2CCOCC2)nc2c(-c3ccn[nH]3)nccc12` (stereo not shown) [Example 47, 3-{[2-(morpholin-4-yl)-8-(1H-pyrazol-5-yl)-1,7-naphthyridin-4-yl]oxy}dihydrofuran-2(3H)-one], the IC50 [1] was 1390 nM.
For `Cc1cc(COc2cc(N3CCOCC3)nc3c(-c4ccn[nH]4)nccc23)on1` [Example 48, 4-[(3-methyl-1,2-oxazol-5-yl)methoxy]-2-(morpholin-4-yl)-8-(1H-pyrazol-5-yl)-1,7-naphthyridine], the IC50 [1] was 161 nM.
Work on `Cc1cc(COc2cc(N3CCOCC3)nc3c(-c4ccn[nH]4)nccc23)no1` [Example 49, 4-[(5-methyl-1,2-oxazol-3-yl)methoxy]-2-(morpholin-4-yl)-8-(1H-pyrazol-5-yl)-1,7-naphthyridine] yielded an IC50 [1] of 200 nM.
In the case of `c1ccc(COc2cc(N3CCOCC3)nc3c(-c4cc[nH]n4)nccc23)cc1` [Example 50, 4-benzyloxy-2-(morpholin-4-yl)-8-(1H-pyrazol-3-yl)-[1,7]naphthyridine], the IC50 [1] is reported as 410 nM and the IC50 [2] is reported as 514 nM.
With `CC(C)Oc1cc(N2CCOC[C@H]2C)nc2c(-c3cc[nH]n3)nccc12` [Example 51, 4-isopropoxy-2-((R)-3-methylmorpholin-4-yl)-8-(1H-pyrazol-3-yl)-[1,7]naphthyridine] the IC50 [1] was 38 nM and the IC50 [2] was 23.3 nM.
`C[C@@H]1COCCN1c1cc(OCCCCNC(=O)OC(C)(C)C)c2ccnc(-c3ccn[nH]3)c2n1` [Example 52, Tert-butyl [4-({2-[(3R)-3-methylmorpholin-4-yl]-8-(1H-pyrazol-5-yl)-1,7-naphthyridin-4-yl}oxy)butyl]carbamate] gave an IC50 [1] of 101 nM and an IC50 [2] of 78.9 nM.
With `COc1cc(N2CCOC[C@H]2C)nc2c(-c3cc[nH]n3)nccc12` [Example 53, 4-methoxy-2-((R)-3-methylmorpholin-4-yl)-8-(1H-pyrazol-3-yl)-[1,7]naphthyridine] the IC50 [1] was 192 nM and the IC50 [2] was 63.5 nM.
`C[C@@H]1COCCN1c1cc(OCCCNC(=O)OC(C)(C)C)c2ccnc(-c3ccn[nH]3)c2n1` [Example 54, Tert-butyl [3-({2-[(3R)-3-methylmorpholin-4-yl]-8-(1H-pyrazol-5-yl)-1,7-naphthyridin-4-yl}oxy)propyl]carbamate] was tested, and the IC50 [1] was 288 nM and the IC50 [2] was 129 nM.
`C[C@@H]1COCCN1c1cc(OCCN)c2ccnc(-c3ccn[nH]3)c2n1` [Example 55, 2-({2-[(3R)-3-methylmorpholin-4-yl]-8-(1H-pyrazol-5-yl)-1,7-naphthyridin-4-yl}oxy)ethanamine] gave an IC50 [1] of 162 nM.
`C[C@@H]1COCCN1c1cc(OCCNC(=O)OC(C)(C)C)c2ccnc(-c3ccn[nH]3)c2n1` [Example 56, Tert-butyl [2-({2-[(3R)-3-methylmorpholin-4-yl]-8-(1H-pyrazol-5-yl)-1,7-naphthyridin-4-yl}oxy)ethyl]carbamate] gave an IC50 [1] of 751 nM and an IC50 [2] of 324 nM.
For `C[C@@H]1COCCN1c1cc(OCCCCN)c2ccnc(-c3ccn[nH]3)c2n1` [Example 57, 4-({2-[(3R)-3-methylmorpholin-4-yl]-8-(1H-pyrazol-5-yl)-1,7-naphthyridin-4-yl}oxy)butan-1-amine], the IC50 [1] was 230 nM.
`CC(C)Oc1cc(N2[C@H](C)COC[C@@H]2C)nc2c(-c3ccn[nH]3)nccc12` [Example 58, 2-[(3R,5S)-3,5-dimethylmorpholin-4-yl]-4-isopropoxy-8-(1H-pyrazol-5-yl)-1,7-naphthyridine] was tested, and the IC50 [1] was 413 nM and the IC50 [2] was 615 nM.
`CC(C)Oc1cc(N2[C@H](C)COC[C@H]2C)nc2c(-c3ccn[nH]3)nccc12` [Example 59, 2-[(3R,5R)-3,5-dimethylmorpholin-4-yl]-4-isopropoxy-8-(1H-pyrazol-5-yl)-1,7-naphthyridine] was tested, and the IC50 [1] was 730 nM and the IC50 [2] was 1250 nM.
`c1cc2c(C3CCOCC3)cc(N3CCOCC3)nc2c(-c2cc[nH]n2)n1` [Example 60, 2-(morpholin-4-yl)-8-(1H-pyrazol-5-yl)-4-(tetrahydro-2H-pyran-4-yl)-1,7-naphthyridine] gave an IC50 [1] of 24.1 nM and an IC50 [2] of 15.7 nM.
Compound `c1cc2ccc(N3CCOCC3)nc2c(-c2cc[nH]n2)n1` [Example 61, 2-(morpholin-4-yl)-8-(1H-pyrazol-3-yl)-[1,7]naphthyridine hydrochloride] has an IC50 [1] of 709 nM and an IC50 [2] of 503 nM.
`Clc1cc(N2CCOCC2)nc2c(-c3cc[nH]n3)nccc12` [Example 62, 4-chloro-2-morpholin-4-yl-8-(1H-pyrazol-3-yl)-[1,7]naphthyridine] gave an IC50 [1] of 997 nM and an IC50 [2] of 707 nM.
In the case of `CSc1cc(N2CCOC[C@H]2C)nc2c(-c3ccn[nH]3)nccc12` [Example 63, 2-[(3R)-3-methylmorpholin-4-yl]-4-(methylsulfanyl)-8-(1H-pyrazol-5-yl)-1,7-naphthyridine], the IC50 [1] is reported as 80.7 nM and the IC50 [2] is reported as 30.7 nM.
